Among the data in patent US10954216B2, “BMP-signal-inhibiting compound” (RIKEN, priority 2016, dated 2021) are inhibition and IC50 values, retold here.

Read-outs that look alike come from different tables or passages of the source.

Test [1] has as its target human ALK6 (Homo sapiens (Human), UniProt O00238). The experiment in a line: ALK6 enzyme inhibitory effect (33P-ATP kinase assay, Reaction Biology). The class given is biochemical. As to conditions: for inhibition at 0.3 µM: read-out: Inhibition rate at 300 nM; for inhibition at 0.37 µM: ALK6, test compound 370 nM (asterisk footnote), read-out: inhibition rate at 370 nM. From the text:
(§1) ALK Enzyme Inhibitory Effect
(§2) Evaluation conditions were described in the following web pages. http://www.reactionbiology.corrilwebapps/site/Kinase_Assay_Protocol.aspx http://www.reactionbiology.corrilwebapps/site/KinaseDetail.aspx?page=Kinases&id=1

The test system of test [2] is BMP signal in MDA-231-D-BREFluc/Rluc cells. The experiment in a line: BMP signal inhibitory effect (AlphaScreen SureFire SMAD1 p-Ser463/465, BMP-6 stimulation). The class given is cell-based. In short, it runs like this: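 MDA-231-D-BREFluc/Rluc cells were pretreated with compound for 2 h at 37° C, then stimulated with BMP-6 for 30 min. SMAD1 p-Ser463/465 in lysates was measured by AlphaScreen SureFire.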
A general note: In Alpha technology, singlet oxygen from a donor bead excites a nearby acceptor bead.

Test [3] has as its target human ALK3 (Homo sapiens (Human), UniProt P36894). The experiment in a line: ALK3 enzyme inhibitory effect (33P-ATP kinase assay, Reaction Biology). The class given is biochemical. As to conditions: for inhibition at 0.3 µM: read-out: Inhibition rate at 300 nM; for inhibition at 0.37 µM: ALK3, test compound 370 nM (asterisk footnote), read-out: inhibition rate at 370 nM.
From the text: as §1, §2

Test [4] concerns the target human ALK2 (Homo sapiens (Human), UniProt Q04771). The experiment in a line: ALK2 enzyme inhibitory effect (33P-ATP kinase assay, Reaction Biology). The class given is biochemical. As to conditions: ALK2, 10 μM ATP, 20 μM casein.
From the text: as §1, §2

Setting [5] is: BMP-6 stimulated MDA-231-D-BREFluc/Rluc cells, phospho-SMAD1 AlphaScreen, read-out: IC50.

A word on the inhibition: it is how much of the control response was suppressed. One may read the IC50 as the point on the concentration scale where inhibition reaches its midpoint.

Sequence of human ALK6 (O00238 14-502): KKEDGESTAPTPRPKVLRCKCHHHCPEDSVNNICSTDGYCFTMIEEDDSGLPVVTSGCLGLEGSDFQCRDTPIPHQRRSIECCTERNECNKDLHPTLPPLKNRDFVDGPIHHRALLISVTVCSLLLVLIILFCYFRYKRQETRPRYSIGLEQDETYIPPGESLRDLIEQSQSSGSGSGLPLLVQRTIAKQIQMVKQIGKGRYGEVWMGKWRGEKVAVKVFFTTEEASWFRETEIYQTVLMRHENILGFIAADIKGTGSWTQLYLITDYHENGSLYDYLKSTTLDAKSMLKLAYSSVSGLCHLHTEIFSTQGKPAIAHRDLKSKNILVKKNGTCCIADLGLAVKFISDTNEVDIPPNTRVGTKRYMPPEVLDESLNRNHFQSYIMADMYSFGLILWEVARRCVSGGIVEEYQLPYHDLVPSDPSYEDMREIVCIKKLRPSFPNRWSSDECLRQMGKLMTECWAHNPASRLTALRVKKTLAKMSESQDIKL
Sequence of human ALK3 (P36894 24-532): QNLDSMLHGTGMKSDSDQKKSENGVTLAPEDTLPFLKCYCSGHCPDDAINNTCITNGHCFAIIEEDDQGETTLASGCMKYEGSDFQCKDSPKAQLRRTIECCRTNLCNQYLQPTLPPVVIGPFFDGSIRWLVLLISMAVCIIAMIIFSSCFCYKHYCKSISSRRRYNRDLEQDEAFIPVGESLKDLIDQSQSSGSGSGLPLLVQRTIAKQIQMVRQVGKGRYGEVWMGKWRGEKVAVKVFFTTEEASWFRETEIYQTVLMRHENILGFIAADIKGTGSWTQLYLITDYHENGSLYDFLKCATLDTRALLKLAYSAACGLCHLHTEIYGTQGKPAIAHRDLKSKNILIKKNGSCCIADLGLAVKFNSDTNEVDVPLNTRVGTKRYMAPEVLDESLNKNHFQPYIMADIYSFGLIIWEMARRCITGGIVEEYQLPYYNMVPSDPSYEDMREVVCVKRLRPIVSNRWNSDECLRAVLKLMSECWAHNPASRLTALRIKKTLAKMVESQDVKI
Sequence of human ALK2 (Q04771 21-509): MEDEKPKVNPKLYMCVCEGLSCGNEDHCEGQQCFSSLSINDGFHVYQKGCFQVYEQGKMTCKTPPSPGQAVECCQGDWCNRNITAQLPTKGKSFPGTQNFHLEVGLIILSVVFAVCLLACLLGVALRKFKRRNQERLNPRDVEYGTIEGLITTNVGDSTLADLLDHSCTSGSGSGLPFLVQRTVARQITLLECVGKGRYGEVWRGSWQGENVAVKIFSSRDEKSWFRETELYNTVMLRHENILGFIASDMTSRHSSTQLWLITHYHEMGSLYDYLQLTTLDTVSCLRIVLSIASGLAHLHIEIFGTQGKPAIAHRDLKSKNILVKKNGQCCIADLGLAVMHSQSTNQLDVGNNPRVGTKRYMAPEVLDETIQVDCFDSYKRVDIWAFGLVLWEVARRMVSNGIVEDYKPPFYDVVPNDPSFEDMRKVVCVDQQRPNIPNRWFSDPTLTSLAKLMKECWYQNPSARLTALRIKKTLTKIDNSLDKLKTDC

As to `CCn1cc(-c2ccnc(Nc3ccc(N4CC5CCC(C4)N5)nc3)n2)c(-c2cccnc2)n1` [Example 144, N-(6-(3,8-Diazabicyclo[3.2.1]octan-3-yl)pyridin-3-yl)-4-(1-ethyl-3-(pyridin-3-yl)-1H-pyrazol-4-yl)pyrimidin-2-amine], the inhibition at 0.3 µM in test [1] was 86%; in test [3], 46%. Besides, 0.0167 µM corresponded to half-maximal inhibition in test [2] (IC50).
Regarding `c1ccc(CCn2cc(-c3ccnc(Nc4ccc(N5CCNCC5)cc4)n3)c(-c3cccnc3)n2)cc1` [Example 142, 4-(1-Phenethyl-3-(pyridin-3-yl)-1H-pyrazol-4-yl)-N-(4-(piperazin-1-yl)phenyl)pyrimidin-2-amine], the inhibition at 0.3 µM in test [1] (ALK6, test compound 300 nM) came out at 92.6%; in test [3] (ALK3, test compound 300 nM), 62.7%. Further, the IC50 is 0.0073 µM in test [2] (setting [5]) and 0.0872 µM in test [4].
For `CCn1cc(-c2ccnc(Nc3ccc(N4CCC(C)(N)CC4)cc3)n2)c(-c2cccnc2)n1` [Example 176, N-(4-(4-amino-4-methylpiperidin-1-yl)phenyl)-4-(1-ethyl-3-(pyridin-3-yl)-1H-pyrazol-4-yl)pyrimidin-2-amine], in that order: 88.5%, 62.4%, 0.0073 µM and 0.066 µM.
As to `CCn1cc(-c2ccnc(Nc3ccc(N4CCN(CC(C)(C)O)CC4)cc3)n2)c(-c2cccnc2)n1` [Example 104, 1-(4-(4-((4-(1-ethyl-3-(pyridin-3-yl)-1H-pyrazol-4-yl)pyrimidin-2-yl)amino)phenyl)piperazin-1-yl)-2-methylpropan-2-ol], the inhibition at 0.3 µM in test [1] (ALK6, test compound 300 nM) turned out to be 93.5%; in test [3] (ALK3, test compound 300 nM), 65.8%. Besides, the IC50 in test [2] (setting [5]) was 0.0164 µM; in test [4], 0.0132 µM.
For `CCn1cc(-c2ccnc(Nc3ccc(N4CCNCC4)c(F)c3)n2)c(-c2cccnc2)n1` [Example 152, 4-(1-Ethyl-3-(pyridin-3-yl)-1H-pyrazol-4-yl)-N-(3-fluoro-4-(piperazin-1-yl)phenyl)pyrimidin-2-amine], in that order: 82%, 53%, 0.0072 µM and 0.015 µM.
For the compound `CCn1cc(-c2ccnc(Nc3ccc(N4CCN(Cc5ccccc5)CC4)cc3)n2)c(-c2cccnc2)n1` [Example 19, N-(4-(4-benzylpiperazin-1-yl)phenyl)-4-(1-ethyl-3-(pyridin-3-yl)-1H-pyrazol-4-yl)pyrimidin-2-amine], the inhibition at 0.3 µM in test [1] (ALK6, test compound 300 nM) amounted to 88.4%; in test [3] (ALK3, test compound 300 nM), 59.3%. The 50% inhibitory concentration (IC50) came to 0.0233 µM in test [2] (setting [5]) and 0.025 µM in test [4].
For `CCn1cc(-c2ccnc(Nc3ccc(N4CCN(C5COC5)CC4)cc3)n2)c(-c2cccnc2)n1` [Example 15, 4-(1-ethyl-3-(pyridin-3-yl)-1H-pyrazol-4-yl)-N-(4-(4-(oxetan-3-yl)piperazin-1-yl)phenyl)pyrimidin-2-amine], in that order: 90.2%, 51.4%, 0.0301 µM and 0.045 µM.
In the case of `Fc1ccc(Cn2cc(-c3ccnc(Nc4ccc(N5CCNCC5)cc4)n3)c(-c3cccnc3)n2)cc1` [Example 139, 4-(1-(4-Fluorobenzyl)-3-(pyridin-3-yl)-1H-pyrazol-4-yl)-N-(4-(piperazin-1-yl)phenyl)pyrimidin-2-amine], the inhibition at 0.3 µM in test [1] (ALK6, test compound 300 nM) amounted to 90.6%; in test [3] (ALK3, test compound 300 nM), 54.3%. Further, the IC50 in test [2] (setting [5]) stood at 0.0162 µM.
On to `CCn1cc(-c2ccnc(Nc3ccc(-c4cnn(CC(F)F)c4)cc3)n2)c(-c2cccnc2)n1` [Example 29, N-(4-(1-(2,2-Difluoroethyl)-1H-pyrazol-4-yl)phenyl)-4-(1-ethyl-3-(pyridin-3-yl)-1H-pyrazol-4-yl)pyrimidin-2-amine], for which the inhibition at 0.3 µM in test [1] (ALK6, test compound 300 nM) was 91.3%; in test [3] (ALK3, test compound 300 nM) it was 66.1%. Also, the IC50 in test [2] (setting [5]) is 0.0294 µM.
`CCn1cc(-c2ccnc(Nc3ccc(C4CC5CCC(C4)N5)cc3)n2)c(-c2cccnc2)n1` (stereo not shown) [Example 163, N-(4-(8-Azabicyclo [3.2.1]octan-3-yl)phenyl)-4-(1-ethyl-3-(pyridin-3-yl)-1H-pyrazol-4-yl)pyrimidin-2-amine]: the inhibition at 0.3 µM amounted to 96.2% in test [1] and 47.6% in test [3]. In test [2], the midpoint of inhibition, the IC50, lay at 0.0049 µM.
As for `CCn1cc(-c2ccnc(Nc3ccc(C(N)=O)cc3)n2)c(-c2cccnc2)n1` [Example 23, 4-((4-(1-Ethyl-3-(pyridin-3-yl)-1H-pyrazol-4-yl)pyrimidin-2-yl)amino)benzamide], in test [2] (setting [5]), the IC50 is 0.0338 µM. The inhibition at 0.3 µM in test [3] (ALK3, test compound 300 nM) turned out to be 52%.
As to `CCn1cc(-c2ccnc(Nc3ccc(N4CCN(C)CC4)cc3)n2)c(-c2cccnc2)n1` [Example 46, 4-(1-Ethyl-3-(pyridin-3-yl)-1H-pyrazol-4-yl)-N-(4-(4-methylpiperazin-1-yl)phenyl)pyrimidin-2-amine], the IC50 came out at 0.0188 µM in test [2] (setting [5]) and 0.0255 µM in test [4].
Regarding `CN1CCN(c2ccc(Nc3nccc(-c4c[nH]nc4-c4cccnc4)n3)cc2)CC1` [Example 127, N-(4-(4-Methylpiperazin-1-yl)phenyl)-4-(3-(pyridin-3-yl)-1H-pyrazol-4-yl)pyrimidin-2-amine], the values for the inhibition at 0.37 µM in test [1] and in test [3] were 82.8% and 55.2%, respectively. Also, the IC50 in test [2] (setting [5]) worked out at 0.0224 µM.
For `CCn1cc(-c2ccnc(Nc3ccc(N4CCNCC4)cc3)n2)c(-c2cccnc2)n1` [Example 151, 4-(1-Ethyl-3-(pyridin-3-yl)-1H-pyrazol-4-yl)-N-(4-(piperazin-1-yl)phenyl)pyrimidin-2-amine], in that order: 93%, 56.1% and 0.0036 µM.
Take `CCn1cc(-c2ccnc(Nc3ccc(N4CCN(C(C)C)CC4)cc3)n2)c(-c2cccnc2)n1` [Example 16, 4-(1-ethyl-3-(pyridin-3-yl)-1H-pyrazol-4-yl)-N-(4-(4-isopropylpiperazin-1-yl)phenyl)pyrimidin-2-amine]: the IC50 in test [2] (setting [5]) came out at 0.0128 µM; in test [4] it was 0.0066 µM.
`CCn1cc(-c2ccnc(Nc3ccc(S(=O)(=O)N(C)C4CCN(C(C)C)CC4)cc3)n2)c(-c2cccnc2)n1` [Example 124]: the inhibition at 0.3 µM in test [1] (ALK6, test compound 300 nM) worked out at 87%. For the same compound, the figures for the IC50 in test [2] (setting [5]) and in test [4] were 0.016 µM and 0.0615 µM, respectively.
With `CCn1cc(-c2ccnc(Nc3ccc(N4CCN(CC5CC5)CC4)cc3)n2)c(-c2cccnc2)n1` [Example 33, N-(4-(4-(Cyclopropylmethyl)piperazin-1-yl)phenyl)-4-(1-ethyl-3-(pyridin-3-yl)-1H-pyrazol-4-yl)pyrimidin-2-amine], the 50% inhibitory concentration (IC50) in test [2] (setting [5]) amounted to 0.0078 µM; in test [4], 0.0061 µM.
The matching figures for `COCCN1CCN(c2ccc(Nc3nccc(-c4cn(CCOC)nc4-c4cccnc4)n3)cc2)CC1` [Example 37, 4-(1-(2-Methoxyethyl)-3-(pyridin-3-yl)-1H-pyrazol-4-yl)-N-(4-(4-(2-methoxyethyl)-piperazin-1-yl)phenyl)pyrimidin-2-amine]: 0.0313 µM and 0.0104 µM.
Turning to `CCn1cc(-c2ccnc(Nc3ccc(N4CCNCC4)cc3)n2)c(-c2cncc(F)c2)n1` [Example 148, 4-(1-Ethyl-3-(5-fluoropyridin-3-yl)-1H-pyrazol-4-yl)-N-(4-(piperazin-1-yl)phenyl)pyrimidin-2-amine], the inhibition at 0.3 µM in test [1] (ALK6, test compound 300 nM) worked out at 79.4%. Moreover, the results for the IC50 in test [2] (setting [5]) and in test [4] were 0.0148 µM and 0.051 µM, respectively.
Consider `CCn1cc(-c2ccnc(Nc3ccc(N4CCC(N)(CC)CC4)cc3)n2)c(-c2cccnc2)n1` [Example 177, N-(4-(4-Amino-4-ethylpiperidin-1-yl)phenyl)-4-(1-ethyl-3-(pyridin-3-yl)-1H-pyrazol-4-yl)pyrimidin-2-amine], for which the IC50 in test [2] (setting [5]) worked out at 0.0085 µM; in test [4], 0.0035 µM.
The matching figures for `CCn1cc(-c2ccnc(Nc3cccc(OC4CCNCC4)c3)n2)c(-c2cccnc2)n1` [Example 165, 4-(1-Ethyl-3-(pyridin-3-yl)-1H-pyrazol-4-yl)-N-(3-(piperidin-4-yloxy)phenyl) pyrimidin-2-amine]: 0.0226 µM and 0.057 µM.
On to `CCn1cc(-c2ccnc(Nc3cccc(CN4CCOCC4)c3)n2)c(-c2cccnc2)n1` [Example 41, 4-(1-ethyl-3-(pyridin-3-yl)-1H-pyrazol-4-yl)-N-(3-(morpholinomethyl)phenyl)pyrimidin-2-amine], for which the inhibition at 0.3 µM in test [1] (ALK6, test compound 300 nM) was 78%. Also, the IC50 in test [2] (setting [5]) was found to be 0.0119 µM; in test [4], 0.068 µM.
Turning to `CCn1cc(-c2ccnc(Nc3ccc(N4CC5CCC(C4)N5)cc3)n2)c(-c2cccnc2)n1` [Example 143, N-(4-(3,8-Diazabicyclo[3.2.1]octan-3-yl)phenyl)-4-(1-ethyl-3-(pyridin-3-yl)-1H-pyrazol-4-yl)pyrimidin-2-amine], the values for the inhibition at 0.3 µM in test [1] and in test [3] were 91% and 57%, respectively. Also, in test [2], the half-maximal inhibitory concentration (IC50) worked out at 0.0092 µM.
As to `N#Cc1cccc(Cn2cc(-c3ccnc(Nc4ccc(N5CCNCC5)cc4)n3)c(-c3cccnc3)n2)c1` [Example 156, 3-((4-(2-((4-(Piperazin-1-yl)phenyl)amino)pyrimidin-4-yl)-3-(pyridin-3-yl)-1H-pyrazol-1-yl)methyl)benzonitrile], the IC50 in test [2] (setting [5]) was 0.0243 µM; in test [4], 0.0061 µM.
